Data from patent publication US20150368242A1, “NOVEL TETRAHYDROPYRIDOPYRIMIDINONE DERIVATIVE” (Ajinomoto Co., Inc., priority 2013, published 2015).
Counter-ions that a name gives are not always drawn. Like-named read-outs stand apart in the source and are kept apart here.

Target: T1, recombinant human MGAT2 enzyme (Homo sapiens, UniProt Q3SYC2)
T1 construct: made in house; host or cells: CHO-K1 (Jump-In CHO-K1 Kit, Life Technologies); microsomal fraction used as the enzyme solution
Assay: Test for human MGAT2 activity inhibitory action (14C-oleoyl CoA, recombinant enzyme microsomes)
Format: biochemical
Parameters: key to Potency relative to Comparative Example 1 (higher = more potent): % inhibition = {1−(C−B)/(A−B)}×100, B = 10 μM Comparative Example 1
Conditions: for IC50: read-out: IC50
Experimental: The human MGAT2 gene described in Am. J. Physiol. Endocrinol. Metab. 285: E927-E937, 2003 was expressed using Jump-In™ CHO-K1 Kit (Life technologies) as described in the attached manual. The cells were suspended in a buffer containing Tris-hydrochloric acid (pH 7.4) at a final concentration of 1 mM, 1 mM ethylenediaminetetraacetic acid, 1 mM dithiothreitol, 250 mM sucrose, and complete protease inhibitor cocktail (Roche applied Science), and then disrupted using a Teflon homogenizer (AS ONE Corporation), followed by centrifugation at 130 g for 10 minutes. The supernatant was further centrifuged at 100,000 g for 1 hour to obtain a pellet as microsomes containing the recombinant enzyme, and a solution obtained by suspending this pellet at a protein concentration of about 800 to 1900 μg/ml was used as an MGAT recombinant enzyme solution.
To a buffer containing 50 mM Tris-hydrochloric acid (pH 7.4), 6 mM magnesium chloride, and 2 mg/mL bovine serum albumin, a test compound was added, and the final concentration of dimethyl sulfoxide was adjusted to 0.3%. Moreover, 2-monooleoyl glycerol, oleoyl CoA, 1-^14C-oleoyl CoA (Perkin Elmer), and orlistat (SIGMA) were added at final concentrations of 50 μM, 50 μM, 2.2 μM, and 8.3 μM, respectively, followed by incubation at 37° C. for 10 minutes. After 10 minutes, the recombinant human MGAT2 enzyme solution was added at a final concentration of 0.67 μg/mL, and the reaction was started, with the amount of the reaction solution being 150 μl. The reaction was carried out at 37° C. for 30 minutes.
After 30 minutes, the reaction was stopped by adding 300 μl of isopropanol:heptane:water=(80:20:2) to the reaction liquid. Further, 200 μl of heptane and 100 μl of water were added, followed by stirring. Then, 100 μl of the upper layer was transferred to a 96-well plate (Corning), and mixed with 100 μl of liquid scintillator (LumaSafe Plus, Lumac). Then, the ^14C count was quantitatively determined using TopCount NXT™ microplate scintillation luminescence counter (Perkin Elmer).
The ^14C count in a case where no test compound was added was defined as A, the ^14C count in a case where 10 μM of the compound (Comparative Example 1) of Example No. 8 of WO2008/038768 was added was defined as B, and the ^14C count in the case where the test compound was added was taken as C. For this case, {1−(C−B)/(A−B)}×100(%) was calculated as the human MGAT2 activity inhibition ratio of the test compound (shown in the column named vs Comp. Ex. 1 in the following Table). A greater value of the “vs Comparative Example 1” means that the MGAT2 activity inhibitory action of the compound of Example was higher as compared to the MGAT2 activity inhibitory action of the compound of Comparative Example 1 (i.e., the human MGAT2 activity inhibition ratio was higher). […] Since this evaluation test was conducted for two separate groups, the test results of the two groups are shown separately in Table (First Test) and Table 4 (Second Test).
Next, the compounds of Examples 25 to 60 of the present invention were also investigated for their pharmacological action by using the same method as in Examples 1 to 24. […] Note that, a comparative evaluation test against the compound of Comparative Example 1 was conducted for each of the compounds of Examples (in every measurement of the inhibitory activity of the compounds of Examples 25 to 60, the inhibitory activity of the compound of Comparative Example 1 was measured). The 50% inhibition concentrations of Comparative Example 1 in the measurement of the inhibitory activities of the compounds of Examples 25 to 60 were shown in Table 5 as “IC50 (nM) of Comparative Example 1.”

[1] = First Test (Table 3), relative to Comparative Example 1, greater value = higher inhibitory action
[2] = Second Test (Table 4), relative to Comparative Example 1

T1 sequence (Q3SYC2 whole entry): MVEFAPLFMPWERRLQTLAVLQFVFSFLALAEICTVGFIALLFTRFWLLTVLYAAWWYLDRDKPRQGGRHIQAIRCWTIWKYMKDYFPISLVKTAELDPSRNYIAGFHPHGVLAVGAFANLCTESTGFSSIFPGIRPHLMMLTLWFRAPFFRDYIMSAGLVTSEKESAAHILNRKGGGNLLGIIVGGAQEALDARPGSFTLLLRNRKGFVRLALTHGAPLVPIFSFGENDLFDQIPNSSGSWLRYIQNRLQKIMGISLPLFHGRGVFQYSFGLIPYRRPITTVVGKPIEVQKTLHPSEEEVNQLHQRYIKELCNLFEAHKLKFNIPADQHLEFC

SMILES	IC50 (First Test (Table 3)) [nM]	Potency relative to Comparative Example 1 (higher = more potent) [1]	IC50 (Second Test (Table 4)) [nM]	Potency relative to Comparative Example 1 (higher = more potent) [2]
O=C(CNCc1ccc(C(F)(F)F)cc1)N1CCc2nc(SC3CCC3)n(-c3ccccc3)c(=O)c2C1 [Example 1, 2-cyclobutylsulfanyl-3-phenyl-6-[2-[[4-(trifluoromethyl)phenyl]methylamino]acetyl]-7,8-dihydro-5H-pyrido[4,3-d]pyrimidin-4-one trifluoroacetate]	4.1	54	–	–
O=C(CNCCCc1ccccc1)N1CCc2nc(SC3CCC3)n(-c3ccccc3)c(=O)c2C1 [Example 2, 2-cyclobutylsulfanyl-3-phenyl-6-[2-(3-phenylpropylamino)acetyl]-7,8-dihydro-5H-pyrido[4,3-d]pyrimidin-4-one trifluoroacetate]	1.3	171	–	–
O=C(CNCc1ccc(Cl)cc1)N1CCc2nc(SC3CCC3)n(-c3ccccc3)c(=O)c2C1 [Example 3, 6-[2-[(4-chlorophenyl)methylamino]acetyl]-2-cyclobutylsulfanyl-3-phenyl-7,8-dihydro-5H-pyrido[4,3-d]pyrimidin-4-one trifluoroacetate]	3.7	60	–	–
O=C(CNCc1cccc(Cl)c1)N1CCc2nc(SC3CCC3)n(-c3ccccc3)c(=O)c2C1 [Example 4, 6-[2-[(3-chlorophenyl)methylamino]acetyl]-2-cyclobutylsulfanyl-3-phenyl-7,8-dihydro-5H-pyrido 4,3-[d]pyrimidin-4-one trifluoroacetate]	2.9	77	–	–
O=C(CNCc1ccc(OCc2ccc(C(F)(F)F)cc2)cc1)N1CCc2nc(SC3CCC3)n(-c3ccccc3)c(=O)c2C1 [Example 6, 2-cyclobutylsulfanyl-3-phenyl-6-[2-[[4-[[4-(trifluoromethyl)phenyl]methoxy]phenyl]methylamino]acetyl]-7,8-dihydro-5H-pyrido[4,3-d]pyrimidin-4-one hydrate trifluoroacetate]	1.6	144	–	–
O=C(CNCc1ccc(COc2ccccc2)cc1)N1CCc2nc(SC3CCC3)n(-c3ccccc3)c(=O)c2C1 [Example 7, 2-cyclobutylsulfanyl-6-[2-[[4-(phenoxymethyl)phenyl]methylamino]acetyl]-3-phenyl-7,8-dihydro-5H-pyrido[4,3-d]pyrimidin-4-one trifluoroacetate]	2.3	75	–	–
O=C(CCNCc1ccccc1)N1CCc2nc(SC3CCC3)n(CC3CCC3)c(=O)c2C1 [Example 12, 6-[3-(benzylamino)propanoyl]-3-(cyclobutylmethyl)-2-cyclobutylsulfanyl-7,8-dihydro-4H-pyrido[4,3-d]pyrimidin-4-one trifluoroacetate]	–	–	1.4	216
O=C(CCNCc1ccccc1)N1CCc2nc(SC3CCC3)n(C3CCCC3)c(=O)c2C1 [Example 15, 6-[3-(benzylamino)propanoyl]-2-cyclobutylsulfanyl-3-cyclopentyl-7,8-dihydro-5H-pyrido[4,3-d]pyrimidin-4-one trifluoroacetate]	–	–	2.4	129
O=C(CCNCc1ccsc1)N1CCc2nc(SC3CCC3)n(-c3ccccc3)c(=O)c2C1 [Example 16, 2-cyclobutylsulfanyl-3-phenyl-6-[3-(3-thienylmeethylamino)propanoyl]-7,8-dihydro-5H-pyrido[4,3-d]pyrimidin-4-one trifluoroacetate]	–	–	1.8	173
O=C(CCNCc1ccccc1F)N1CCc2nc(SC3CCC3)n(-c3ccccc3)c(=O)c2C1 [Example 18, 2-cyclobutylsulfanyl-6-[3-[(2-fluorophenyl)methylammino]propanoyl]-3-phenyl-7,8-dihydro-5H-pyrido[4,3-d]pyrimidin-4-one trifluoroacetate]	–	–	2.3	134

Second part, the molecule after the results:

IC50 (First Test (Table 3)) [nM]	Potency relative to Comparative Example 1 (higher = more potent) [1]	IC50 (Second Test (Table 4)) [nM]	Potency relative to Comparative Example 1 (higher = more potent) [2]	SMILES
3.5	63	–	–	O=C(CNCCc1ccccc1)N1CCc2nc(SC3CCC3)n(-c3ccccc3)c(=O)c2C1 [Example 8, 2-cyclobutylsulfanyl-6-[2-(phenylethylamino)acetyl]-3-phenyl-7,8-dihydro-5H-pyrido[4,3-d]pyrimidin-4-one trifluoroacetate]
3.9	57	–	–	O=C(CNCCOc1ccc(F)c(F)c1)N1CCc2nc(SC3CCC3)n(-c3ccccc3)c(=O)c2C1 [Example 9, 2-cyclobutylsulfanyl-6-[2-[2-(3,4-difluorophenoxy)ethylamino]acetyl]-3-phenyl-7,8-dihydro-5H-pyrido[4,3-d]pyrimidin-4-one trifluoroacetate]
0.82	273	–	–	O=C(CCNCc1ccccc1)N1CCc2nc(SC3CCC3)n(-c3ccccc3)c(=O)c2C1 [Example 10, 6-[3-(benzylamino)propanoyl]-2-cyclobutylsulfanyl-3-phenyl-7,8-dihydro-5H-pyrido[4,3-d]pyrimidin-4-one trifluoroacetate]
–	–	1.8	166	[2H]c1c([2H])c([2H])c(-n2c(SC3CCC3)nc3c(c2=O)CN(C(=O)CCNCc2ccccc2)CC3)c([2H])c1[2H] [Example 11, 6-[3-(benzylamino)propanoyl]-2-cyclobutylsulfanyl-3-(2,3,4,5,6-pentadeuteriophenyl)-7,8-dihydro-5H-pyrido[4,3-d]pyrimidin-4-one trifluoroacetate]
–	–	6.9	44	O=C(CCNCc1ccccc1)N1CCc2nc(SC3CCC3)n(C[C@H]3CCCO3)c(=O)c2C1 [Example 13, 6-[3-(benzylamino)propanoyl]-2-cyclobutylsulfanyl-3-[[(2R)-tetrahydrofuran-2-yl]methyl]-7,8-dihydro-5H-pyrido[4,3-d]pyrimidin-4-one trifluoroacetate]
–	–	4.7	65	O=C(CCNCc1ccccc1)N1CCc2nc(SC3CCC3)n(Cc3ccco3)c(=O)c2C1 [Example 14, 6-[3-(benzylamino)propanoyl]-2-cyclobutylsulfanyl-3-(2-furylmethyl)-7,8-dihydro-5H-pyrido[4,3-d]pyrimidin-4-one trifluoroacetate]
–	–	2.1	148	COc1ccccc1CNCCC(=O)N1CCc2nc(SC3CCC3)n(-c3ccccc3)c(=O)c2C1 [Example 17, 2-cyclobutylsulfanyl-6-[3-[(2-methoxyphenyl)methylamino]propanoyl]-3-phenyl-7,8-dihydro-5H-pyrido[4,3-d]pyrimidin-4-one trifluoroacetate]
–	–	0.9	352	O=C(CCNCc1ccc(C(F)(F)F)cc1)N1CCc2nc(SC3CCC3)n(-c3ccccc3)c(=O)c2C1 [Example 19, 2-cyclobutylsulfanyl-3-phenyl-6-[3-[[4-(trifluoromethyl)phenyl]methylamino]propanoyl]-7,8-dihydro-5H-pyrido[4,3-d]pyrimidin-4-one trifluoroacetate]
–	–	1	300	O=C(CCNCc1csc2ccccc12)N1CCc2nc(SC3CCC3)n(-c3ccccc3)c(=O)c2C1 [Example 20, 6-[3-(benzothiophen-3-ylmethylamino)propanoyl]-2-cyclobutylsulfanyl-3-phenyl-7,8-dihydro-5H-pyrido[4,3-d]pyrimidin-4-one trifluoroacetate]
